Laboratory results as given in the supplement of paper PMC4862054.

Assays:
HDQ-P1 [1] = assay: normalised viability (% of control), CellTiter-Blue; higher = more viable cells (about 100 = DMSO control); conditions: incubation time: 72 h
Summary of the method: (§1)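 Each value is normalised viability at a single listed concentration of the series. Breast cancer cell lines in 384-well plates were incubated 72 h with compound and read by CellTiter-Blue fluorescence at 560/590 nm, with vehicle set to 100 and a positive kill control to 0 on every plate.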

CAL-85-1 [2] = assay: as above; conditions: incubation time: 72 h
Summary of the method: as §1

DU-4475 [3] = assay: as above; conditions: incubation time: 72 h
Summary of the method: as §1

MDA-MB-231 [4] = assay: as above; conditions: incubation time: 72 h
Summary of the method: as §1

HCC1143 [5] = conditions: 72 h
Description: (§2)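 Drug sensitivity and resistance testing (DSRT) of breast cancer cell lines in 384-well plates, 5 concentrations in 10-fold dilutions over a compound-specific 10,000-fold range. After 72 h, cytotoxicity was read by CellTox Green fluorescence and viability by CellTiter-Glo luminescence (multiplexed), normalised to DMSO and benzethonium chloride controls. EC50 is the inflection point of the fitted dose-response curve (bottom asymptote free, so it can be relative for partial curves) and is censored at the highest tested concentration. Rows with DSS 0 (no meaningful response) were excluded.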

CAL-51 [6] = conditions: 72 h
Description: as §2

CAL-148 [7] = conditions: 72 h
Description: as §2

CAL-85-1 [8] = conditions: 72 h
Description: as §2

MDA-MB-468 [9] = conditions: 72 h
Description: as §2

BT-474 [10] = conditions: 72 h
Description: as §2

HCC1599 [11] = conditions: 72 h
Summary of the method: (§3)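 Rows with a drug sensitivity score of zero were dropped, and EC50 was taken from the fitted percent-inhibition dose-response curve, censored at the highest concentration. Data were normalised on each plate to vehicle and a positive kill control and checked by Z'-factor. The assay seeded breast cancer cell lines in 20 µl onto 384-well plates pre-loaded with compound in 5 µl medium for 72 h, then added 2.5 µl CellTiter-Blue for 2 h at 37 °C and read fluorescence at 560/590 nm.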

HCC1937 [12] = conditions: 72 h
Summary of the method: as §3

Hs578T [13] = conditions: 72 h
Summary of the method: as §3

HCC1143 [14] = conditions: 72 h; remark: listed apart in the source
Summary of the method: as §3

CAL-120 = conditions: 72 h
Summary of the method: as §3

SK-BR-3 = conditions: 72 h
Summary of the method: as §3

MDA-MB-468 [15] = conditions: 72 h; remark: listed apart in the source
Summary of the method: as §3

BT-474 [16] = conditions: 72 h; remark: listed apart in the source
Summary of the method: as §3

MDA-MB-436 [17] = conditions: 72 h
Summary of the method: as §3

MFM-223 [18] = conditions: 72 h
Summary of the method: as §3

MDA-MB-231 [19] = conditions: 72 h
Summary of the method: as §3

BT-549 [20] = conditions: 72 h
Summary of the method: as §3

HDQ-P1 [21] = conditions: 72 h
Summary of the method: (§4)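 Breast cancer cell lines in 20 µl suspension were added to 384-well plates already holding compound at 5 concentrations, spaced in 10-fold steps across a compound-specific 10,000-fold range, and incubated for 72 h. CellTox Green fluorescence (485/520 nm) was read first to measure cell death, followed by CellTiter-Glo luminescence for viability after 10 min at room temperature. Each plate was normalised to 0.1 % DMSO and a positive kill control. EC50 values came from dose-response curve fits and were censored at the top concentration.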

HCC1599 [22] = conditions: 72 h; remark: listed apart in the source
Summary of the method: as §4

HCC1143 [23] = conditions: 72 h; remark: listed apart in the source
Summary of the method: as §4

CAL-148 [24] = conditions: 72 h; remark: listed apart in the source
Summary of the method: as §4

DU-4475 [25] = conditions: 72 h
Summary of the method: as §4

MFM-223 [26] = conditions: 72 h; remark: listed apart in the source
Summary of the method: as §4

HDQ-P1 [27] = conditions: 72 h; remark: listed apart in the source
Summary of the method: as §3

CAL-51 [28] = conditions: 72 h; remark: listed apart in the source
Summary of the method: as §3

CAL-148 [29] = conditions: 72 h; remark: listed apart in the source
Summary of the method: as §3

CAL-85-1 [30] = conditions: 72 h; remark: listed apart in the source
Summary of the method: as §3

DU-4475 [31] = conditions: 72 h; remark: listed apart in the source
Summary of the method: as §3

Hs578T [32] = conditions: 72 h; remark: listed apart in the source
Description: as §2

HDQ-P1 [33] = conditions: 72 h; remark: listed apart in the source
Description: as §2

HCC1937 [34] = conditions: 72 h; remark: listed apart in the source
Description: as §2

MDA-MB-436 [35] = conditions: 72 h; remark: listed apart in the source
Description: as §2

MDA-MB-453 = conditions: 72 h
Description: as §2

MDA-MB-231 [36] = conditions: 72 h; remark: listed apart in the source
Description: as §2

BT-549 [37] = conditions: 72 h; remark: listed apart in the source
Description: as §2

## COc1ccc(-c2ccc3c(N4CCOC[C@@H]4C)nc(N4CCOC[C@@H]4C)nc3n2)cc1CO [AZD8055]
HDQ-P1 [1]; 30 nM
  normalised viability: 53.1%
CAL-85-1 [2]; 30 nM
  normalised viability: 56.9%
DU-4475 [3]; 30 nM
  normalised viability: 75.8%
MDA-MB-231 [4]; 1000 nM
  normalised viability: 23.9%
HCC1143 [5]
  EC50, CellTox Green: 1470 nM
CAL-51 [6]
  EC50, CellTox Green: 5.2 nM
CAL-148 [7]
  EC50, CellTox Green: 30.7 nM
CAL-85-1 [8]
  EC50, CellTox Green: > 10000 nM
MDA-MB-468 [9]
  EC50, CellTox Green: 6940 nM
BT-474 [10]
  EC50, CellTox Green: 9150 nM
HCC1599 [11]
  EC50, CellTiter-Blue viability: 62.8 nM
HCC1937 [12]
  EC50, CellTiter-Blue viability: 15.4 nM
Hs578T [13]
  EC50, CellTiter-Blue viability: 36.9 nM
HCC1143 [14]
  EC50, CellTiter-Blue viability: 79.2 nM
CAL-120
  EC50, CellTiter-Blue viability: 45.4 nM
SK-BR-3
  EC50, CellTiter-Blue viability: 20.1 nM
MDA-MB-468 [15]
  EC50, CellTiter-Blue viability: 149 nM
BT-474 [16]
  EC50, CellTiter-Blue viability: 83.8 nM
MDA-MB-436 [17]
  EC50, CellTiter-Blue viability: 106 nM
MFM-223 [18]
  EC50, CellTiter-Blue viability: 18.7 nM
MDA-MB-231 [19]
  EC50, CellTiter-Blue viability: 47.4 nM
BT-549 [20]
  EC50, CellTiter-Blue viability: 61 nM
HDQ-P1 [21]
  EC50, CellTiter-Glo: 30.5 nM
HCC1599 [22]
  EC50, CellTiter-Glo: 152 nM
HCC1143 [23]
  EC50, CellTiter-Glo: 40.4 nM
CAL-148 [24]
  EC50, CellTiter-Glo: 64.1 nM
DU-4475 [25]
  EC50, CellTiter-Glo: 229 nM
MFM-223 [26]
  EC50, CellTiter-Glo: 20.3 nM
HDQ-P1 [27]
  EC50, CellTiter-Blue viability: 23.8 nM
CAL-51 [28]
  EC50, CellTiter-Blue viability: 21.9 nM
CAL-148 [29]
  EC50, CellTiter-Blue viability: 34.5 nM
CAL-85-1 [30]
  EC50, CellTiter-Blue viability: 34.7 nM
DU-4475 [31]
  EC50, CellTiter-Blue viability: 104 nM

## Cn1c(=O)n(-c2ccc(C(C)(C)C#N)cc2)c2c3cc(-c4cnc5ccccc5c4)ccc3ncc21 [NVP-BEZ235]
HDQ-P1 [1]; 3 nM
  normalised viability: 94.5%
CAL-85-1 [2]; 3 nM
  normalised viability: 84.5%
DU-4475 [3]; 3 nM
  normalised viability: 107%
MDA-MB-231 [4]; 100 nM
  normalised viability: 26.8%
HCC1599 [11]
  EC50, CellTiter-Blue viability: 20.8 nM
HCC1937 [12]
  EC50, CellTiter-Blue viability: 6.87 nM
Hs578T [13]
  EC50, CellTiter-Blue viability: 8.08 nM
HCC1143 [14]
  EC50, CellTiter-Blue viability: 15.2 nM
CAL-120
  EC50, CellTiter-Blue viability: 10.1 nM
SK-BR-3
  EC50, CellTiter-Blue viability: 26.4 nM
MDA-MB-468 [15]
  EC50, CellTiter-Blue viability: 27.1 nM
BT-474 [16]
  EC50, CellTiter-Blue viability: 21.7 nM
MDA-MB-436 [17]
  EC50, CellTiter-Blue viability: 52.5 nM
MFM-223 [18]
  EC50, CellTiter-Blue viability: 7.73 nM
MDA-MB-231 [19]
  EC50, CellTiter-Blue viability: 12.9 nM
BT-549 [20]
  EC50, CellTiter-Blue viability: 12.8 nM
HDQ-P1 [27]
  EC50, CellTiter-Blue viability: 10.8 nM
CAL-51 [28]
  EC50, CellTiter-Blue viability: 10.1 nM
CAL-148 [29]
  EC50, CellTiter-Blue viability: 17.6 nM
CAL-85-1 [30]
  EC50, CellTiter-Blue viability: 12.6 nM
DU-4475 [31]
  EC50, CellTiter-Blue viability: 54 nM

## Nc1ncnc2c1c(COc1cccc(Cl)c1)nn2C1CCOCC1
Hs578T [32]
  EC50, CellTox Green: > 10000 nM

## CN(C)C[C@@H]1CCn2cc(c3ccccc32)C2=C(C(=O)NC2=O)c2cn(c3ccccc23)CCO1 [Ruboxistaurin]
HDQ-P1 [1]; 30 nM
  normalised viability: 84.3%
CAL-85-1 [2]; 30 nM
  normalised viability: 105%
DU-4475 [3]; 30 nM
  normalised viability: 92.3%
MDA-MB-231 [4]; 1000 nM
  normalised viability: 88.2%
HDQ-P1 [33]
  EC50, CellTox Green: 5090 nM
HCC1937 [34]
  EC50, CellTox Green: 7550 nM
CAL-51 [6]
  EC50, CellTox Green: 1580 nM
CAL-148 [7]
  EC50, CellTox Green: 999 nM
CAL-85-1 [8]
  EC50, CellTox Green: 2320 nM
MDA-MB-468 [9]
  EC50, CellTox Green: 2490 nM
BT-474 [10]
  EC50, CellTox Green: 370 nM
MDA-MB-436 [35]
  EC50, CellTox Green: 1000 nM
MDA-MB-453
  EC50, CellTox Green: 3790 nM
MDA-MB-231 [36]
  EC50, CellTox Green: 2010 nM
BT-549 [37]
  EC50, CellTox Green: 7220 nM
HCC1599 [11]
  EC50, CellTiter-Blue viability: 1730 nM
HCC1937 [12]
  EC50, CellTiter-Blue viability: 4090 nM
Hs578T [13]
  EC50, CellTiter-Blue viability: 8920 nM
CAL-120
  EC50, CellTiter-Blue viability: 6140 nM
SK-BR-3
  EC50, CellTiter-Blue viability: 2400 nM
MDA-MB-468 [15]
  EC50, CellTiter-Blue viability: 2690 nM
BT-474 [16]
  EC50, CellTiter-Blue viability: 2790 nM
MDA-MB-436 [17]
  EC50, CellTiter-Blue viability: 505 nM
MFM-223 [18]
  EC50, CellTiter-Blue viability: 1480 nM
MDA-MB-231 [19]
  EC50, CellTiter-Blue viability: 4700 nM
BT-549 [20]
  EC50, CellTiter-Blue viability: 8000 nM
HDQ-P1 [21]
  EC50, CellTiter-Glo: 2720 nM
HCC1143 [23]
  EC50, CellTiter-Glo: 9320 nM
CAL-148 [24]
  EC50, CellTiter-Glo: 1750 nM
DU-4475 [25]
  EC50, CellTiter-Glo: 3790 nM
MFM-223 [26]
  EC50, CellTiter-Glo: 3220 nM
HDQ-P1 [27]
  EC50, CellTiter-Blue viability: 3540 nM
CAL-51 [28]
  EC50, CellTiter-Blue viability: 4800 nM
CAL-148 [29]
  EC50, CellTiter-Blue viability: 4840 nM
DU-4475 [31]
  EC50, CellTiter-Blue viability: 2740 nM
